Entries after “also recorded” stand apart in the source; their conditions may differ. Read-outs that look alike come from different tables or passages of the source.

The term IC50 denotes the midpoint of a concentration-inhibition curve. As usually defined, the inhibition is the share of the control response that was lost under treatment. The term % Inhibition denotes the drop in the measured response relative to a control, in per cent. Higher therefore signals a strong effect. Broadly, the melting point is the temperature of the solid-liquid transition.

Series [1] deals with tyrosinase. The note with it: cited from earlier work; for IC50: tyrosinase.
Series [2] has as its system B16F10 cell line. Further details: method as in PMID 33640246. To be noted: cited from earlier work.
Series [3] deals with B16F10 cell line. Further details: method as in PMID 33640246. The note with it: cited from earlier work. This is another data set of the same source.
The target in another series is T1, mushroom tyrosinase (Agaricus bisporus, UniProt C7FF04).
T1 construct: purchased Sigma-Aldrich, St Louis, MO, USA
T1 sequence (C7FF04 1-392 limits assumed): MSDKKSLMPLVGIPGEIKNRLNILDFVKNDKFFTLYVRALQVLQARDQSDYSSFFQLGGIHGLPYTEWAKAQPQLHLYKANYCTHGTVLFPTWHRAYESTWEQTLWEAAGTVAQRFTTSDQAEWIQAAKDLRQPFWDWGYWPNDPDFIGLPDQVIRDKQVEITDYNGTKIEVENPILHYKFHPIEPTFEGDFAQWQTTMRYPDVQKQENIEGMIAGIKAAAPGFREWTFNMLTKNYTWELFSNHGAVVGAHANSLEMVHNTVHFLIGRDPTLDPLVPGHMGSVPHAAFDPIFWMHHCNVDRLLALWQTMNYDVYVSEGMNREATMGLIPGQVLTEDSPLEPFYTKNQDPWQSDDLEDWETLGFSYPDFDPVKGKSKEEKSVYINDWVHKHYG
Briefly: Screening of mushroom tyrosinase inhibitory activity (oxidation of L-dopa). It is filed as biochemical. To be noted: L-dopa substrate, mean ± S.E; for inhibition at 50 µM: 50 µM compound. As for the experimental part:
All newly synthesized compounds (9a–q) were examined for their inhibitory potentials against the tyrosinase enzyme and the results were presented in Table 1 and the structure–activity relationships (SARs) were constructed. […].
Tyrosinase inhibitory activity was determined based on the previously described procedure with a slight modification. In brief, the test reaction mixture comprised 10 µL of each derivative, and 10 µL of mushroom tyrosinase (500 units; Sigma-Aldrich, St Louis, MO, USA) in 160 potassium phosphate buffer (pH = 6.8). The reaction mixture was incubated at 37 °C for 20 min and then 20 µL of L-Dopa (0.5 mmol/L) was added to each well, and the absorption was measured at 475 nm. The absorbance of the same mixture without tyrosinase was used as the control. Kojic acid was used as a positive control. The optical density of the inhibition in the control was considered to represent 100%. The data are expressed as mean percentages and the results were repeated in triplicate.

Series [4] is described as follows: DPPH radical scavenging assay (antioxidant activity). The note with it: for % Inhibition at 100 µM: 100 µM compound, mean ± S.E of three independent experiments; for antioxidant capacity: result in words; for IC50: NA means not active, read-out: IC50 (µM) ± RSD. The procedure:
In vitro antioxidant activities of the synthesized compounds were determined quantitatively using DPPH radical scavenging assay. DPPH is a stable free radical at room temperature and accepts an electron or hydrogen radical from an antioxidant to become a stable diamagnetic molecule. […] Similar to previous studies, halogens especially fluorine, increases antioxidant activity.
The DPPH antioxidant potencies of all derivatives were performed according to previously published articles.

Series [5] deals with tyrosinase (Agaricus bisporus, UniProt C7FF04). Nature of the series: Enzyme kinetic studies of tyrosinase inhibition (Lineweaver-Burk and secondary plots). It is filed as biochemical, mushroom. As for the experimental part:
Fig. 2 Kinetics of tyrosinase inhibition by 9q. a The Lineweaver–Burk plot in the absence and presence of different concentrations of 9q; b The secondary plot of slopes of the lines vs various concentrations of 9q; c The secondary plot of 1/Vmax vs various concentrations of 9q
A Lineweaver–Burk plot was generated to identify the type of inhibition and the Michaelis–Menten constant (Km) value was determined from the plot between the reciprocal of the substrate concentration (1/[S]) and reciprocal of enzyme rate (1/V) over various inhibitor concentrations.

tyrosinase (Agaricus bisporus, UniProt C7FF04), sequence (C7FF04 2-392): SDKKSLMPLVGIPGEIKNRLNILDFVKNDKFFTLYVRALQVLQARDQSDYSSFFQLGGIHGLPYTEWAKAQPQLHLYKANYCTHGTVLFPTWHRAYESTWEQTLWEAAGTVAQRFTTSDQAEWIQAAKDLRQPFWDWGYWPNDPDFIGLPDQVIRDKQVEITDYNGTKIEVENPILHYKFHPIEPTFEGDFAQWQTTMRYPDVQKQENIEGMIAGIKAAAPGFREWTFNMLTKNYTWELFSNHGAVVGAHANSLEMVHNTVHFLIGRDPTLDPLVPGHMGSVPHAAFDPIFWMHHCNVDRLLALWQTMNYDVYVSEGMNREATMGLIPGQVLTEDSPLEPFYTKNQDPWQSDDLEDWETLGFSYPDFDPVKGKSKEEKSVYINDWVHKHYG

In the case of `O=c1cc(CSc2nc3ccccc3c(=O)n2Cc2ccccn2)occ1O` [C], at tyrosinase [1], the IC50 is 0.46 ± 0.9 µM. Also, in the series with B16F10 cell line [2], the melanin content result was “reduced the melanin content”. For the same compound, the toxicity entry with B16F10 cell line [3] is on record as “limited toxicity”.
In the case of `CC(C)n1c(SCC(=O)Nc2ccccc2)nc2ccccc2c1=O` [Compound 9a, 2-((3-Isopropyl-4-oxo-3,4-dihydroquinazolin-2-yl)thio)-N-phenylacetamide], the melting point was in the range of 190 to 192 °C. Moreover, at mushroom tyrosinase, the inhibition at 50 µM worked out at 21.6 ± 3.79%. Moreover, in series [4], the “% Inhibition at 100 µM” value is reported as 2.941 ± 1.76% and the antioxidant capacity result is given as “no antioxidant capacity”.
The compound `CC(C)n1c(SCC(=O)Nc2ccccc2Cl)nc2ccccc2c1=O` [Compound 9b, N-(2-chlorophenyl)-2-((3-isopropyl-4-oxo-3,4-dihydroquinazolin-2-yl)thio)acetamide] came in with a melting point of 207 to 209 °C. For the same compound, testing at 50 µM against mushroom tyrosinase gave an inhibition of 38 ± 4.68%. Moreover, the “% Inhibition at 100 µM” value in series [4] was 26.47 ± 2.48%.
As to `CC(C)n1c(SCC(=O)Nc2cccc(Cl)c2)nc2ccccc2c1=O` [Compound 9c, N-(3-chlorophenyl)-2-((3-isopropyl-4-oxo-3,4-dihydroquinazolin-2-yl)thio)acetamide], the melting point lay within 203 to 205 °C. For the same compound, the inhibition at 50 µM on mushroom tyrosinase came out at 27.8 ± 1.19%. For the same compound, the “% Inhibition at 100 µM” value in series [4] turned out to be 18.71 ± 5.39%.
`CC(C)n1c(SCC(=O)Nc2ccc(Cl)cc2)nc2ccccc2c1=O` [Compound 9d, N-(4-chlorophenyl)-2-((3-isopropyl-4-oxo-3,4-dihydroquinazolin-2-yl)thio)acetamide]: the melting point lay in the range of 211 to 213 °C. The same compound registered an inhibition at 50 µM against mushroom tyrosinase of 26.9 ± 4.67%. Further, the “% Inhibition at 100 µM” value in series [4] is on record as 42.78 ± 4.86%.
As to `CC(C)n1c(SCC(=O)Nc2ccc(Br)cc2)nc2ccccc2c1=O` [Compound 9e, N-(4-bromophenyl)-2-((3-isopropyl-4-oxo-3,4-dihydroquinazolin-2-yl)thio)acetamide], the melting point was in the range of 203 to 205 °C. The compound further came in with an inhibition at 50 µM against mushroom tyrosinase of 24.8 ± 3.12%. In series [4], the “% Inhibition at 100 µM” value was determined as 41.44 ± 3.85%.
In the same order, the values of `CC(C)n1c(SCC(=O)Nc2ccc([N+](=O)[O-])cc2)nc2ccccc2c1=O` [Compound 9f, 2-((3-isopropyl-4-oxo-3,4-dihydroquinazolin-2-yl)thio)-N-(4-nitrophenyl)acetamide] are 216 to 218 °C, 32.7 ± 5.67% and 4.87 ± 1.65%.
In turn, `Cc1ccccc1NC(=O)CSc1nc2ccccc2c(=O)n1C(C)C` [Compound 9g, 2-((3-isopropyl-4-oxo-3,4-dihydroquinazolin-2-yl)thio)-N-(o-tolyl)acetamide] showed a melting point of 196 to 198 °C. Also, the inhibition at 50 µM against mushroom tyrosinase was determined as 34.6 ± 4.67%.
As to `Cc1ccc(NC(=O)CSc2nc3ccccc3c(=O)n2C(C)C)cc1` [Compound 9h, 2-((3-isopropyl-4-oxo-3,4-dihydroquinazolin-2-yl)thio)-N-(p-tolyl)acetamide], the melting point is 199 to 201 °C. On mushroom tyrosinase, this compound showed an inhibition at 50 µM of 26.7 ± 6.42%. Besides, the “% Inhibition at 100 µM” value in series [4] is on record as 29.41 ± 1.76%.
For `COc1ccc(NC(=O)CSc2nc3ccccc3c(=O)n2C(C)C)cc1` [Compound 9i, 2-((3-isopropyl-4-oxo-3,4-dihydroquinazolin-2-yl)thio)-N-(4-methoxyphenyl)acetamide], in that order: 205 to 207 °C, 25.4 ± 3.13% and 20.05 ± 3.47%.
For `CC(C)n1c(SCC(=O)Nc2ccc(O)cc2)nc2ccccc2c1=O` [Compound 9j, N-(4-hydroxyphenyl)-2-((3-isopropyl-4-oxo-3,4-dihydroquinazolin-2-yl)thio)acetamide], in that order: 193 to 195 °C, 35.5 ± 4.91% and 40.83 ± 4.53%.
In the same order, the values of `CCc1ccc(NC(=O)CSc2nc3ccccc3c(=O)n2C(C)C)cc1` [Compound 9k, N-(4-ethylphenyl)-2-((3-isopropyl-4-oxo-3,4-dihydroquinazolin-2-yl)thio)acetamide] are 195 to 197 °C, 20.4 ± 4.19% and 10.16 ± 4.27%.
With `Cc1cccc(NC(=O)CSc2nc3ccccc3c(=O)n2C(C)C)c1C` [Compound 9l, N-(2,3-dimethylphenyl)-2-((3-isopropyl-4-oxo-3,4-dihydroquinazolin-2-yl)thio)acetamide], the melting point was in the range of 217 to 219 °C. This compound also displayed an inhibition at 50 µM against mushroom tyrosinase of 18.2 ± 5.52%. In series [4], the “% Inhibition at 100 µM” value was determined as 5.08 ± 2.14%.
In the same order, the values of `Cc1ccc(NC(=O)CSc2nc3ccccc3c(=O)n2C(C)C)c(C)c1` [Compound 9m, N-(2,4-dimethylphenyl)-2-((3-isopropyl-4-oxo-3,4-dihydroquinazolin-2-yl)thio)acetamide] are 222 to 225 °C, 27.3 ± 3.43% and 21.12 ± 2.99%.
In the same order, the values of `Cc1cccc(C)c1NC(=O)CSc1nc2ccccc2c(=O)n1C(C)C` [Compound 9n, N-(2,6-dimethylphenyl)-2-((3-isopropyl-4-oxo-3,4-dihydroquinazolin-2-yl)thio)acetamide] are 215 to 217 °C, 16.3 ± 6.57% and 44.38 ± 5.03%.
As for `CC(C)n1c(SCC(=O)Nc2ccc3ccccc3c2)nc2ccccc2c1=O` [Compound 9o, 2-((3-isopropyl-4-oxo-3,4-dihydroquinazolin-2-yl)thio)-N-(naphthalen-2-yl)acetamide], the melting point lay in the range of 217 to 219 °C. The compound further displayed an inhibition at 50 µM at mushroom tyrosinase of 35.2 ± 3.88%. In series [4], the “% Inhibition at 100 µM” value was found to be 68.44 ± 4.84% and the IC50 amounted to 38.8 µM.
As to `CC(C)n1c(SCC(=O)NCc2ccccc2)nc2ccccc2c1=O` [Compound 9p, N-benzyl-2-((3-isopropyl-4-oxo-3,4-dihydroquinazolin-2-yl)thio)acetamide], the melting point was 194 to 196 °C. 50 µM produced 29.1 ± 5.24% inhibition against mushroom tyrosinase. Moreover, in series [4], the “% Inhibition at 100 µM” value is 4.47 ± 2.35% and the antioxidant capacity result is reported as “no antioxidant capacity”.
For `CC(C)n1c(SCC(=O)NCc2ccc(F)cc2)nc2ccccc2c1=O` [Compound 9q, N-(4-fluorobenzyl)-2-((3-isopropyl-4-oxo-3,4-dihydroquinazolin-2-yl)thio)acetamide], at mushroom tyrosinase, the inhibition at 50 µM was found to be 54.5 ± 3.94%. On mushroom tyrosinase (NA means not active), this compound yielded a 50% inhibitory concentration (IC50) of 34.7 ± 3.68 µM. In addition, the type of inhibition result at tyrosinase [5] (Lineweaver-Burk plot, L-Dopa substrate, 9q at 10-50 µM) is on record as “mix-type inhibition; also recorded: mix-type inhibitor; also recorded: mixed mode of inhibition”. The “inhibition constant with the enzyme-substrate complex (KIS)” value against tyrosinase [5] (secondary plot of 1/Vmax vs inhibitor concentration) was found to be 87.32 µM. For the same compound, in series [4], the “% Inhibition at 100 µM” value is recorded as 60.33 ± 5.53% and the IC50 worked out at 40.7 µM.
As for `O=c1[nH]c(-c2ccc(F)cc2)nc2ccccc12` [Compound A, 2–4-fluorophenyl-quinazolin-4(3H)-one], the type of inhibition entry with tyrosinase [1] (kinetic studies) was “reversible and mixed-type inhibitor”. Also, on tyrosinase [1] (diphenolase activity), the IC50 is 120 ± 2 µM.
Regarding `CC(C)=CCC/C(C)=C/c1nc2ccccc2c(=O)[nH]1` [D], in the series on tyrosinase [1], the type of inhibition result is recorded as “mix type inhibition pattern” and the IC50 is 103 ± 2 µM.
With `CC(C)n1c(=S)[nH]c2ccccc2c1=O` [E], the IC50 on tyrosinase [1] is 15.5 ± 1.19 µM.
`CC(C)N1C(=O)c2ccccc2NC1SCc1ccccc1` (stereo not drawn) [F]: at tyrosinase [1], the IC50 is 71 ± 3.37 µM.
For the compound `O=c1c(O)c(-c2ccc(O)c(O)c2)oc2cc(O)cc(O)c12` [Quercetin, reference compound], the IC50 in series [4] is 18.6 µM.
